Experimental findings from patent US20230143612A1 (Arbutus Biopharma Corporation, priority 2020, published 2023) are described below.

Sequence of PD-L1 His protein / PD-1 Fc protein (Q9NZQ7 19-238 limits assumed): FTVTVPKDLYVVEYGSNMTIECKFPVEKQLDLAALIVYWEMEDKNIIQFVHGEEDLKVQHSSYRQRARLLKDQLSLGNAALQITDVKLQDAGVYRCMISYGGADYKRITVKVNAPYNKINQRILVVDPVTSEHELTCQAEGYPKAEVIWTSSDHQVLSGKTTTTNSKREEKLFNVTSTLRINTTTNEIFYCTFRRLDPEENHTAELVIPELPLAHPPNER

The assay concerns the target PD-L1 His protein / PD-1 Fc protein (Homo sapiens, UniProt Q9NZQ7). As to the kind of experiment: HTRF Assay (PD-1/PD-L1 interaction). To be noted: PD-L1 His 6 nM, PD-1 Fc 6 nM. In kind it is binding. A digest of the protocol:
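Compounds tested from 20 μM down to 0.001 μM (3-fold) against 6 nM PD-L1 His and 6 nM PD-1 Fc, 15 min room temperature incubation. Detection after 1 h at room temperature with Tb cryptate anti-6HIS and XL665 anti-human IgG reagents (mixture at 0.35 nM and 6.7 nM), HTRF signal.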
(In general: In TR-FRET formats the signal depends on donor and acceptor labels being close together.)
`COc1nc(-c2cccc(-c3cccc(-c4cc5c(cn4)CN(CCNC[C@@H]4CCC(=O)N4)C5=O)c3Cl)c2Cl)ccc1CNC[C@@H]1CCC(=O)N1` [Example 454, 6-(2,2′-dichloro-3′-(6-methoxy-5-(((((S)-5-oxopyrrolidin-2-yl)methyl)amino)methyl)pyridin-2-yl)-[1,1′-biphenyl]-3-yl)-2-(2-((((S)-5-oxopyrrolidin-2-yl)methyl)amino)ethyl)-2,3-dihydro-1H-pyrrolo[3,4-c]pyridin-1-one] displayed an IC50 of 0.1 nM.
Compound `COc1nc(-c2cccc(-c3cccc(-c4cc5c(=O)n(C)c(CNCC(C)(C)O)nn5c4)c3Cl)c2Cl)ccc1CNC[C@@H]1CCC(=O)N1` [Example 405, (S)-6-(2,2′-Dichloro-3′-(6-methoxy-5-((((5-oxopyrrolidin-2-yl)methyl)amino)methyl)pyridin-2-yl)-[1,1′-biphenyl]-3-yl)-2-(((2-hydroxy-2-methylpropyl)amino)methyl)-3-methylpyrrolo [2,1-f][1,2,4]triazin-4(3H)-one] came in with an IC50 of 84 nM.
As for `COc1nc(NCCNC(C)=O)cnc1-c1cccc(-c2cccc(-c3ncc(NCCNC(C)=O)nc3OC)c2Cl)c1Cl` [Example 39, N,N′-((((2,2′-Dichloro-[1,1′-biphenyl]-3,3′-diyl)bis(6-methoxypyrazine-5,2-diyl))bis(azanediyl))bis(ethane-2,1-diyl))diacetamide], the figure is 1000 nM.
For `CN1CCNCc2ccc(-c3cccc(-c4cccc(-c5ccn6c(=O)c(CNC[C@@H]7CCC(=O)N7)cnc6c5)c4Cl)c3Cl)cc21` [Example 410, (S)-8-(2,2′-Dichloro-3′-(1-methyl-2,3,4,5-tetrahydro-1H-benzo[e][1,4]diazepin-8-yl)-[1,1′-biphenyl]-3-yl)-3-((((5-oxopyrrolidin-2-yl)methyl)amino)methyl)-4H-pyrido[1,2-a]pyrimidin-4-one] the value was 120 nM; for `COc1cc2c(cc1CNC[C@@H]1CCC(=O)N1)CCC2=Cc1cccc(-c2cccc(-c3ccc(CNC[C@@H]4CCC(=O)N4)c(OC)n3)c2Cl)c1Cl` [Example 228, (S)-5-((((6-(2,2′-Dichloro-3′-((6-methoxy-5-(((((S)-5-oxopyrrolidin-2-yl)methyl)amino)methyl)-2,3-dihydro-1H-inden-1-ylidene)methyl)-[1,1′-biphenyl]-3-yl)-2-methoxypyridin-3-yl)methyl)amino)methyl)pyrrolidin-2-one], 3200 nM.
For `COc1nc(-c2cccc(-c3cccc(-c4cc5c(=O)n(C)c(CN6CC7(CCC(=O)N7)C6)nn5c4)c3Cl)c2Cl)ccc1CNC[C@@H]1CCC(=O)N1` [Example 448, 6-[2-Chloro-3-[2-chloro-3-[6-methoxy-5-[[[(2S)-5-oxopyrrolidin-2-yl]methylamino]methyl]-2-pyridyl]phenyl]phenyl]-3-methyl-2-[(6-oxo-2,5-diazaspiro[3.4]octan-2-yl)methyl]pyrrolo [2,1-f][1,2,4]triazin-4-one] the value was 6.8 nM.
`COc1nc(-c2cccc(-c3cccc(-c4ccn5c(=O)c(CN6CCC[C@H](C(=O)O)C6)cnc5c4)c3Cl)c2Cl)ccc1CNC[C@@H]1CCC(=O)N1` [Example 130, (S)-1-((8-(2,2′-Dichloro-3′-(6-methoxy-5-(((((S)-5-oxopyrrolidin-2-yl)methyl)amino)methyl)pyridin-2-yl)-[1,1′-biphenyl]-3-yl)-4-oxo-4H-pyrido[1,2-a]pyrimidin-3-yl)methyl)piperidine-3-carboxylic acid] yielded an IC50 of 0.3 nM.
For `COc1nc(-c2cccc(-c3cccc(-c4ccn5c(=O)c(CNC[C@H]6C[C@H]6CO)cnc5c4)c3Cl)c2Cl)ccc1CNC[C@@H]1CCC(=O)N1` (racemic) [Example 225, 8-(2,2′-dichloro-3′-(6-methoxy-5-(((((S)-5-oxopyrrolidin-2-yl)methyl)-amino)-methyl)-pyridin-2-yl)-[1,1′-biphenyl]-3-yl)-3-(((((1S,2R)-2-(hydroxymethyl)-cyclopropyl)methyl)amino)methyl)-4H-pyrido[1,2-a]pyrimidin-4-one] the value was 0.2 nM; for `COc1nc(-c2cccc(-c3cccc(-c4ccn5c(=O)c(CNC[C@@H]6CCCO6)cnc5c4)c3Cl)c2Cl)ccc1CNC[C@@H]1CCC(=O)N1` [Example 307, 8-[2-Chloro-3-[2-chloro-3-[6-methoxy-5-[[[(2S)-5-oxopyrrolidin-2-yl]methylamino]methyl]-2-pyridyl]phenyl]phenyl]-3-[[[(2S)-tetrahydrofuran-2-yl]methylamino]methyl]pyrido[1,2-a]pyrimidin-4-one], 37 nM; for `COc1nc(-c2cc(F)cc(-c3cccc(-c4ccn5c(=O)c(CNC[C@@H]6CCC(=O)N6)cnc5c4)c3Cl)c2Cl)ccc1CNC[C@@H]1CCC(=O)N1` [Example 86, 8-(2,2′-Dichloro-5′-fluoro-3′-(6-methoxy-5-(((((S)-5-oxopyrrolidin-2-yl)methyl)amino)methyl)pyridin-2-yl)-[1,1′-biphenyl]-3-yl)-3-(((((S)-5-oxopyrrolidin-2-yl)methyl)amino)methyl)-4H-pyrido[1,2-a]pyrimidin-4-one], 4.1 nM.
For `COc1nc(-c2cccc(-c3cccc(-c4ccc5[nH]c(CNC[C@@H]6CCC(=O)N6)c(Cl)c5n4)c3Cl)c2Cl)ccc1CNC[C@@H]1CCC(=O)N1` [Example 385, (S)-5-((((3-Chloro-5-(2,2′-dichloro-3′-(6-methoxy-5-(((((S)-5-oxopyrrolidin-2-yl)methyl)-amino)methyl)-pyridin-2-yl)-[1,1′-biphenyl]-3-yl)-1H-pyrrolo[3,2-b]-pyridin-2-yl)methyl)-amino)methyl)-pyrrolidin-2-one] the value was 13 nM.
Regarding `COc1nc(-c2cccc(-c3cccc(-c4ccn5c(=O)c(CN6CC[C@@H](O)C6)cnc5c4)c3Cl)c2Cl)ccc1CNC[C@@H]1CCC(=O)N1` [Example 169, 8-(2,2′-Dichloro-3′-(6-methoxy-5-(((((S)-5-oxopyrrolidin-2-yl)methyl)amino)methyl)pyridin-2-yl)-[1,1′-biphenyl]-3-yl)-3-(((R)-3-hydroxypyrrolidin-1-yl)methyl)-4H-pyrido[1,2-a]pyrimidin-4-one], the IC50 came out at 0.4 nM.
Regarding `COc1nc(-c2cccc(-c3cccc(-c4cc5c(=O)n(C)c(CNC[C@H]6CNC(=O)C6)nn5c4)c3Cl)c2Cl)ccc1CNC[C@@H]1CCC(=O)N1` [Example 476, 6-[2-Chloro-3-[2-chloro-3-[6-methoxy-5-[[[(2S)-5-oxopyrrolidin-2-yl]methylamino]methyl]-2-pyridyl]phenyl]phenyl]-3-methyl-2-[[[(3S)-5-oxopyrrolidin-3-yl]methylamino]methyl]pyrrolo[2,1-f][1,2,4]triazin-4-one], the IC50 stood at 33 nM.
As for `CNCCCN(C)Cc1ccc(-c2cccc(-c3cccc(-c4ccn5c(=O)c(CN(C)CCNC)cnc5c4)c3Cl)c2Cl)nc1OC` [Example 276, 8-(2,2′-dichloro-3′-(6-methoxy-5-((methyl(3-(methylamino)propyl)amino)methyl)pyridin-2-yl)-[1,1′-biphenyl]-3-yl)-3-((methyl(2-(methylamino)ethyl)amino)methyl)-4H-pyrido[1,2-a]pyrimidin-4-one], the figure is 90 nM; as for `O=C1CC[C@@H](CNCc2nc3cc(-c4cccc(-c5cccc(-c6ccn7c(=O)c(CNC[C@@H]8CCC(=O)N8)cnc7c6)c5Cl)c4Cl)ccn3c2Cl)N1` [Example 429, 8-[2-Chloro-3-[2-chloro-3-[3-chloro-2-[[[(2S)-5-oxopyrrolidin-2-yl]methylamino]methyl]imidazo[1,2-a]pyridin-7-yl]phenyl]phenyl]-3-[[[(2S)-5-oxopyrrolidin-2-yl]methylamino]methyl]pyrido[1,2-a]pyrimidin-4-one], 240 nM.
For `COc1nc(-c2cccc(-c3cccc(-c4ccn5c(=O)c(CNC6CC7(CCNC7=O)C6)cnc5c4)c3Cl)c2Cl)ccc1CNC[C@@H]1CCC(=O)N1` (single isomer, unassigned) [Example 250] the value was 1 nM.
Regarding `COC(=O)c1cnc(-c2cnc3cc(-c4cccc(-c5cccc(-c6ccc(CNC[C@@H]7CCC(=O)N7)c(OC)n6)c5Cl)c4Cl)ccn3c2=O)[nH]1` [Example 167, methyl (S)-2-(8-(2,2′-dichloro-3′-(6-methoxy-5-((((5-oxopyrrolidin-2-yl)methyl)amino)methyl)pyridin-2-yl)-[1,1′-biphenyl]-3-yl)-4-oxo-4H-pyrido[1,2-a]pyrimidin-3-yl)-1H-imidazole-5-carboxylate], it took 0.5 nM to reach half-maximal inhibition (IC50).
For `CN1CCC(NCCO)c2ccc(-c3cccc(-c4cccc(-c5ccc6c(n5)N(C)CCC6NCCO)c4Cl)c3Cl)nc21` (mixture of isomers) [Example 34, 2,2′-(((2,2′-Dichloro-[1,1′-biphenyl]-3,3′-diyl)bis(1-methyl-1,2,3,4-tetrahydro-1,8-naphthyridine-7,4-diyl))bis(azanediyl))bis(ethan-1-ol)] the value was 4.8 nM; for `COc1nc(-c2cccc(-c3cccc(-c4cc5c(=O)n(C)c(CN(C)CCO)nn5c4)c3Cl)c2Cl)ccc1CNC[C@@H]1CCC(=O)N1` [Example 395, (S)-6-(2,2′-Dichloro-3′-(6-methoxy-5-((((5-oxopyrrolidin-2-yl)methyl)amino)methyl)pyridin-2-yl)-[1,1′-biphenyl]-3-yl)-2-(((2-hydroxyethyl)(methyl)amino)methyl)-3-methylpyrrolo[2,1-f][1,2,4]triazin-4(3H)-one], 6.7 nM.
As for `COc1nc(-c2cccc(-c3cccc(-c4ccn5c(=O)c(CN[C@H]6C[C@](C)(O)C6)cnc5c4)c3Cl)c2Cl)cc(Cl)c1CNC[C@@H]1CCC(=O)N1` [Example 393, 8-(2,2′-Dichloro-3′-(4-chloro-6-methoxy-5-(((((S)-5-oxopyrrolidin-2-yl)methyl)amino)methyl)pyridin-2-yl)-[1,1′-biphenyl]-3-yl)-3-((((1r,3r)-3-hydroxy-3-methylcyclobutyl)amino)methyl)-4H-pyrido[1,2-a]pyrimidin-4-one], the figure is 62 nM.

The term IC50 denotes the midpoint of a concentration-inhibition curve.
